Laboratory results as given in the supplement of paper PMC12819154, “High-throughput peptide-centric local stability assay extends protein–ligand identification to membrane proteins, tissues and bacteria” (Nature Structural & Molecular Biology, 2025).

Columns and labels:
Test in all cases: pEC50 of peptide local stability change
UniProt P00582 = conditions: peptide sequence: LYLPDIK; direction: stabilized; replicate design: treated separately
Procedure: (§1)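 Dose-response HT-PELSA: desalted E. coli lysate treated separately per replicate with ATP (10 uM to 10 mM, 7 doses) for 30 min at 25 C, then a 4 min trypsin pulse at 22 C. Peptide ratio vs control was fitted with a 4-parameter log-logistic model (R2 > 0.9 in at least 3 replicates, CV of pEC50 <= 0.25); value is the mean pEC50 across replicates for stabilized or destabilized peptides.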

UniProt P00954 = conditions: peptide sequence: FRNDEAFLQQVMK; direction: stabilized; replicate design: treated separately
Procedure: as §1

UniProt P03007 = conditions: peptide sequence: VTDSLAVAR; direction: stabilized; replicate design: treated separately
Procedure: as §1

UniProt P03018 = conditions: peptide sequence: EVYHRPSR; direction: stabilized; replicate design: treated separately
Procedure: as §1

UniProt P05707 = conditions: peptide sequence: VGSKHNSGYSAAK; direction: stabilized; replicate design: treated separately
Procedure: as §1

UniProt P06710 = conditions: peptide sequence: ALDVEQIR; direction: stabilized; replicate design: treated separately
Procedure: as §1

UniProt P06999 = conditions: peptide sequence: ELTQPDDVR; direction: stabilized; replicate design: treated separately
Procedure: as §1

UniProt P07604 = conditions: peptide sequence: YAWPGNVR; direction: stabilized; replicate design: treated separately
Procedure: as §1

UniProt P08192 = conditions: peptide sequence: ASGLEVSENAIR; direction: stabilized; replicate design: treated separately
Procedure: as §1

UniProt P08200 = conditions: peptide sequence: VAIKGPLTTPVGGGIR; direction: stabilized; replicate design: treated separately
Procedure: as §1

UniProt P0A9B6 = conditions: peptide sequence: SLQSLPWR; direction: stabilized; replicate design: treated separately
Procedure: as §1

UniProt P0ACL0 = conditions: peptide sequence: HVMLVVDHSK; direction: stabilized; replicate design: treated separately
Procedure: as §1

UniProt P0ACW4 = conditions: peptide sequence: GGISHCTAGGKFVCNDGSISASK; direction: stabilized; replicate design: treated separately
Procedure: as §1

UniProt P0AFU4 = conditions: peptide sequence: LMTASWPGNVR; direction: stabilized; replicate design: treated separately
Procedure: as §1

UniProt P0AFW8 = conditions: peptide sequence: KNVEYLVVEAAGETR; direction: stabilized; replicate design: treated separately
Procedure: as §1

UniProt P11454 = conditions: peptide sequence: ALPLPELK; direction: stabilized; replicate design: treated separately
Procedure: as §1

UniProt P11664 = conditions: peptide sequence: GAPETFDVAK; direction: stabilized; replicate design: treated separately
Procedure: as §1

UniProt P14081 = conditions: peptide sequence: LFITAATEGR; direction: stabilized; replicate design: treated separately
Procedure: as §1

UniProt P15038 = conditions: peptide sequence: AVVNGEHSLLVLAGAGSGK; direction: stabilized; replicate design: treated separately
Procedure: as §1

UniProt P15640 = conditions: peptide sequence: VIEFNCR; direction: stabilized; replicate design: treated separately
Procedure: as §1

UniProt P23331 = conditions: peptide sequence: AEHEQQAIHCVLVDECQFLTR; direction: stabilized; replicate design: treated separately
Procedure: as §1

UniProt P23830 = conditions: peptide sequence: EALGVLHFK; direction: stabilized; replicate design: treated separately
Procedure: as §1

UniProt P25741 = conditions: peptide sequence: GKDAFAEVK; direction: stabilized; replicate design: treated separately
Procedure: as §1

UniProt P27296 = conditions: peptide sequence: AQIAAWYK; direction: stabilized; replicate design: treated separately
Procedure: as §1

UniProt P31060 = conditions: peptide sequence: QSQFSHITR; direction: stabilized; replicate design: treated separately
Procedure: as §1

UniProt P31548 = conditions: peptide sequence: LPGELSGGQR; direction: stabilized; replicate design: treated separately
Procedure: as §1

UniProt P33593 = conditions: peptide sequence: LADDVAVMSDGK; direction: stabilized; replicate design: treated separately
Procedure: as §1

UniProt P36879 = conditions: peptide sequence: KTYPGGVQALR; direction: stabilized; replicate design: treated separately
Procedure: as §1

UniProt P75821 = conditions: peptide sequence: SAKEPPLTHYGVSK; direction: stabilized; replicate design: treated separately
Procedure: as §1

UniProt P76419 = conditions: peptide sequence: GGDCAPTREELLLAHK; direction: stabilized; replicate design: treated separately
Procedure: as §1

UniProt Q46802 = conditions: peptide sequence: GAFTGASANGK; direction: stabilized; replicate design: treated separately
Procedure: as §1

Chain of UniProt P76419 (P76419 whole entry): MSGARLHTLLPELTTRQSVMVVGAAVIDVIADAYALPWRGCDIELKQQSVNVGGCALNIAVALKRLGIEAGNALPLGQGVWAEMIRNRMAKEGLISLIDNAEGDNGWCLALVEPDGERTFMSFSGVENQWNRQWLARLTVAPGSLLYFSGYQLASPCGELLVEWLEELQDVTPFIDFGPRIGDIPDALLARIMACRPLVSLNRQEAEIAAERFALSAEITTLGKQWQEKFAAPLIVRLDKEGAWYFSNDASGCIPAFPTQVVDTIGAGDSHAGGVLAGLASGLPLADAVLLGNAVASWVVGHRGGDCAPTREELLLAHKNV
Chain of UniProt P00582 (P00582 whole entry): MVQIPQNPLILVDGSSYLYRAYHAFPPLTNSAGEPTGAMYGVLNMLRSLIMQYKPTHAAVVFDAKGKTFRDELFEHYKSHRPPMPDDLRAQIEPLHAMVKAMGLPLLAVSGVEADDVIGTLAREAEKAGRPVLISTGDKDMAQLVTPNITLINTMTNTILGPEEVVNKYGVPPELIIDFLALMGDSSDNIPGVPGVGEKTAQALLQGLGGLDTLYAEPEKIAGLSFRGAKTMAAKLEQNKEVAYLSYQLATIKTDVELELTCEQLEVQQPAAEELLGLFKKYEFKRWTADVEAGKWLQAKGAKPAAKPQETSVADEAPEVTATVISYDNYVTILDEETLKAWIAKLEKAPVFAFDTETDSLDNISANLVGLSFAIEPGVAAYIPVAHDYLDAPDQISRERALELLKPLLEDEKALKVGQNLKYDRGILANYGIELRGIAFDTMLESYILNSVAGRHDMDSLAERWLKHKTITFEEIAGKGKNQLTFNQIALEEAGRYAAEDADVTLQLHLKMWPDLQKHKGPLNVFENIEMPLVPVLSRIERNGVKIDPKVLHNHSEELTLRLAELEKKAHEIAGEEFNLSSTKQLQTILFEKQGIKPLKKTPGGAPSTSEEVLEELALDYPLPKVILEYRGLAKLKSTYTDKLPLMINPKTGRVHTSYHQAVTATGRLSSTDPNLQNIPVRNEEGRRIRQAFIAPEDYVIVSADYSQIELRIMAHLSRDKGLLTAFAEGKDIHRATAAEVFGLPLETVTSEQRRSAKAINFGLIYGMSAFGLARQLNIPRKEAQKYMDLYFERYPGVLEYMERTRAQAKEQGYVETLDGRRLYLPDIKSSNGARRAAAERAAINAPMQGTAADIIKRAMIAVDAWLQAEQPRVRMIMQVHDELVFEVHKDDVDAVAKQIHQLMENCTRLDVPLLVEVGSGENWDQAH
Chain of UniProt P27296 (P27296 whole entry): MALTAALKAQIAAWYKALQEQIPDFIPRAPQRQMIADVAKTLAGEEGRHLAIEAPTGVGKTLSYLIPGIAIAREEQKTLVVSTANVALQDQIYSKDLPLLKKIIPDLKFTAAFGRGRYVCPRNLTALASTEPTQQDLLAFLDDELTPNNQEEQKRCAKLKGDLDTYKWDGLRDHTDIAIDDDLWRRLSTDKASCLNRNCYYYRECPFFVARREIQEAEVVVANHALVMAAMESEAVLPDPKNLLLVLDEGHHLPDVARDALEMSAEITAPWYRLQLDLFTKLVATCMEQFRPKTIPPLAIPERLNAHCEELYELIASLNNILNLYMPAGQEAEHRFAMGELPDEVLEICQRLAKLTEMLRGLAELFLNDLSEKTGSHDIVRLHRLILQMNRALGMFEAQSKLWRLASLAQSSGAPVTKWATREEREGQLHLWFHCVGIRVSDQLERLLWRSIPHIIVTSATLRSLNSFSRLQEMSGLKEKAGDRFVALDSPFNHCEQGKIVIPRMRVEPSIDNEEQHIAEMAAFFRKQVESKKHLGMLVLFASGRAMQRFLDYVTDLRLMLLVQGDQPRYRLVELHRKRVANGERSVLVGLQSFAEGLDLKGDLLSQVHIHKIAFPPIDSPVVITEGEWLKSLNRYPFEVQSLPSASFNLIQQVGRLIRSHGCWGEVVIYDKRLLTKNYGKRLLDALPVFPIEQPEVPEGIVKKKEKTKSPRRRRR
Chain of UniProt P0ACL0 (P0ACL0 whole entry): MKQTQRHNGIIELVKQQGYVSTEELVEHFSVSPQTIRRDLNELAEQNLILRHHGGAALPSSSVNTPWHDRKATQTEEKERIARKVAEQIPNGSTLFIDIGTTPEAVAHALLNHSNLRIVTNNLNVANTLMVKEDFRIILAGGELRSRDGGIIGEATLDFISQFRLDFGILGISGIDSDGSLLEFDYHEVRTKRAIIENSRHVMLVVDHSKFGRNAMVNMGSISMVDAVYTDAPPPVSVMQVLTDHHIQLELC
Chain of UniProt P23830 (P23830 whole entry): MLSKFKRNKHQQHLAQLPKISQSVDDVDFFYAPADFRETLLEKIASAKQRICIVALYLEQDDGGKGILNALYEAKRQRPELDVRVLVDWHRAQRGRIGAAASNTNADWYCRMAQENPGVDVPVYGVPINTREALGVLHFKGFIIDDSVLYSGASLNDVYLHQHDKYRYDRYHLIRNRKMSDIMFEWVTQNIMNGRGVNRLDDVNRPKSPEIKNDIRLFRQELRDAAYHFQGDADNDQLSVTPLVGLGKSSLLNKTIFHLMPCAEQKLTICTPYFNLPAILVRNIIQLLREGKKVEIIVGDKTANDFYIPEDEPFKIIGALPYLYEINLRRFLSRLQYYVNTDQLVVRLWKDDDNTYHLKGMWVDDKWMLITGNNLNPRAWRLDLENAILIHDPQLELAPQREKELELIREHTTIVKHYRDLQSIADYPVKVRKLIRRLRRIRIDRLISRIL
Chain of UniProt P06710 (P06710 whole entry): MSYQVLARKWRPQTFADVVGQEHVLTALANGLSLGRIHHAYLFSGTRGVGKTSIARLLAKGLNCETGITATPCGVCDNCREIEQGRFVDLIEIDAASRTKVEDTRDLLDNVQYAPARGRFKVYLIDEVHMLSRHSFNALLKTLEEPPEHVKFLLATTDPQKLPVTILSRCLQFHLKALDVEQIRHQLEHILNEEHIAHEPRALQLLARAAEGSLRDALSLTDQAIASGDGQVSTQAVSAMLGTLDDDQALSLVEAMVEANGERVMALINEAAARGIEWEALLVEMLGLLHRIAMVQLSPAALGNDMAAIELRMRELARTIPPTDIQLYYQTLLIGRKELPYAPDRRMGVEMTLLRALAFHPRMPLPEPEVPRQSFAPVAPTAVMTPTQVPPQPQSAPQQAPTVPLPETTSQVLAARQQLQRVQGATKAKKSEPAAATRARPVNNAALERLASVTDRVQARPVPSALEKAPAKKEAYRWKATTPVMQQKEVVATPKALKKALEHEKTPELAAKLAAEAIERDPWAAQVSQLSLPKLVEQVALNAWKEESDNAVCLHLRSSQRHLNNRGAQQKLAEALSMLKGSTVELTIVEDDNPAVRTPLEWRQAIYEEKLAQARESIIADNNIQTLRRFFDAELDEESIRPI
Chain of UniProt P75821 (P75821 whole entry): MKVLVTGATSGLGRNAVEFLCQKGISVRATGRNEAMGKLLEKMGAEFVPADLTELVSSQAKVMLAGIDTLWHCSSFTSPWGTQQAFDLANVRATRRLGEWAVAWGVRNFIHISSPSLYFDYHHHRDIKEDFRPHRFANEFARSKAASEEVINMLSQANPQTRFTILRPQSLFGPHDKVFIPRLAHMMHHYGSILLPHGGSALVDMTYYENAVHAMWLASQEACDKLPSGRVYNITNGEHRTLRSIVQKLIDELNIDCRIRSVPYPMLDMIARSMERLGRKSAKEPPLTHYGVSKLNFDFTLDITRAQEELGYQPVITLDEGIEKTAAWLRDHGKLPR
Chain of UniProt P0AFW8 (P0AFW8 whole entry): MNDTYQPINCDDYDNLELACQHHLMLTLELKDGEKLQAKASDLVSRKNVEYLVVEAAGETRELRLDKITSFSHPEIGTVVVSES
Chain of UniProt P36879 (P36879 whole entry): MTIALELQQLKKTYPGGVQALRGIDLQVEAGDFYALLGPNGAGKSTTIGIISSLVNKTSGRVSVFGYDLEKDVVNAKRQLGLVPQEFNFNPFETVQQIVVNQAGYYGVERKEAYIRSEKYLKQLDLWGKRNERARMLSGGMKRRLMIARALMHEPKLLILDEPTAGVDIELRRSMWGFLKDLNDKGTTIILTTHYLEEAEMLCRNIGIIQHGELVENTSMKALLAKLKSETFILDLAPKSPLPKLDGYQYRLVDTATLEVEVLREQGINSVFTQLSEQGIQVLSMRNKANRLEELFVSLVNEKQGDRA
Chain of UniProt P11664 (P11664 whole entry): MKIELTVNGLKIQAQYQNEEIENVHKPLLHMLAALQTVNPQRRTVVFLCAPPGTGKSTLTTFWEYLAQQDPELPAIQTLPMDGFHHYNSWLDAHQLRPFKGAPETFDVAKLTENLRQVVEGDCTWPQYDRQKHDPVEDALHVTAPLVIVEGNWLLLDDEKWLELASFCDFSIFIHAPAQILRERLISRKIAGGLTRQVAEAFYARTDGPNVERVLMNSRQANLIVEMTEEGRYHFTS
Chain of UniProt P03007 (P03007 whole entry): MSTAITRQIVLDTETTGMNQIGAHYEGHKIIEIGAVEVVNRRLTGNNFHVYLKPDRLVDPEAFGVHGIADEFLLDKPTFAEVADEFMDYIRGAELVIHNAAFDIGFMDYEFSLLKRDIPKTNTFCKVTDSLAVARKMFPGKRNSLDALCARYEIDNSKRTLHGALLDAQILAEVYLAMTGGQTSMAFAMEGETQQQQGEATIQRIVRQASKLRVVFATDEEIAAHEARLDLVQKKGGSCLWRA
Chain of UniProt P0A9B6 (P0A9B6 whole entry): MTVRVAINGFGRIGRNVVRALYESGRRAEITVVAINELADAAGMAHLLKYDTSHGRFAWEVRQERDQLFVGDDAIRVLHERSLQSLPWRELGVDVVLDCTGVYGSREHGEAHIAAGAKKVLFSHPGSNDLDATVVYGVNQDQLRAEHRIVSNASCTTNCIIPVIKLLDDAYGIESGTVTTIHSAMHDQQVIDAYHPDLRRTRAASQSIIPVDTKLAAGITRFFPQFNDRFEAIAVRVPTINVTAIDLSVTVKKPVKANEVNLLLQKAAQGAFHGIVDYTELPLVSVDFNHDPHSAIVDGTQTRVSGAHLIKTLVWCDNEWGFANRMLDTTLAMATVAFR
Chain of UniProt P0ACW4 (P0ACW4 whole entry): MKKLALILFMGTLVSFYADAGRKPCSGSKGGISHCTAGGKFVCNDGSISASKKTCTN

Nc1ncnc2c1ncn2[C@@H]1O[C@H](COP(=O)(O)OP(=O)(O)OP(=O)(O)O)[C@@H](O)[C@H]1O [adenosine 5'-triphosphate]
Conditions	pEC50 of peptide local stability change
UniProt P0A9B6	2.62
UniProt P0ACL0	4.44
UniProt P0ACW4	2.19
UniProt P0AFU4	3.39
UniProt P0AFW8	3.07
UniProt P00582	3.5
UniProt P00954	2.73
UniProt P03007	2.27
UniProt P03018	3.07
UniProt P05707	3.86
UniProt P06710	3.78
UniProt P06999	3.2
UniProt P07604	4.06
UniProt P08192	2.7
UniProt P08200	2.33
UniProt P11454	3.15
UniProt P11664	3.03
UniProt P14081	3.42
UniProt P15038	3.67
UniProt P15640	3.7
UniProt P23331	3.2
UniProt P23830	2.53
UniProt P25741	3.2
UniProt P27296	3.36
UniProt P31060	2.89
UniProt P31548	3.79
UniProt P33593	4.43
UniProt P36879	3.73
UniProt P75821	2.62
UniProt P76419	3.74
UniProt Q46802	3.29
